Literature values in patent US8263645B2, “Disodium cromoglycate compositions and methods for administering same” (PARI Pharma GmbH, priority 2006, dated 2012).
Where two headings read alike, the source gives them in different places.

Tests used:
[1] = timed urine collections
[2] = test system: intermediate conductance chloride channels; details: channels activated following immunological stimulation

lung deposition ([1]; 20 mg DSCG via Acron nebulizer (MMD=4.5 μm)): 1.5%
lung deposition ([1]; 20 mg DSCG via pMDI): 0.3%
SMILES: O=C([O-])c1cc(=O)c2c(OCC(O)COc3cccc4oc(C(=O)[O-])cc(=O)c34)cccc2o1.[Na+].[Na+] [DSCG, disodium cromoglycate]
histamine release (rat mast cells; following antigen challenge): inhibition of histamine release
influx of calcium ions (rat mast cells; rat mast cells): inhibited the influx of calcium ions
chloride channel block [2]: block intermediate conductance chloride channels
